# Source: PubChem BioAssay AID256 (DTP/NCI, 2004)
# Where “and” joins values, the source holds several entries; their conditions need not be identical. Equal entries are not always repeated. Toxic doses and inconclusive results are not listed.
# Test system: CD2F1 mice, L1210 leukemia ip, survival T/C
# Assay: NCI In Vivo Anticancer Drug Screen. Data for tumor model L1210 Leukemia (intraperitoneal) in CD2F1 (CDF1) mice
# Conditions: higher = longer survival
# Procedure, shortened: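 Antitumor effect is scored in animals hosting a serially transplanted tumor. Values compare compound-dosed animals against vehicle-only controls as a simple quotient.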
# [1] = endpoint: mean survival time, dose: 12.5 mg/kg/injection, schedule: Q01DX009 (ip), vehicle: water
# [2] = endpoint: mean survival time, dose: 25.0 mg/kg/injection, schedule: Q01DX009 (ip), vehicle: water
# [3] = endpoint: mean survival time, dose: 50.0 mg/kg/injection, schedule: Q01DX009 (ip), vehicle: saline with Tween-80
# [4] = endpoint: mean survival time, dose: 100.0 mg/kg/injection, schedule: Q01DX009 (ip), vehicle: saline with Tween-80
# [5] = endpoint: mean survival time, dose: 100.0 mg/kg/injection, schedule: Q04DX003 (ip), vehicle: saline with Tween-80
# [6] = endpoint: mean survival time, dose: 200.0 mg/kg/injection, schedule: Q01DX009 (ip), vehicle: saline with Tween-80
# [7] = endpoint: mean survival time, dose: 200.0 mg/kg/injection, schedule: Q04DX003 (ip), vehicle: saline with Tween-80
# [8] = endpoint: mean survival time, dose: 400.0 mg/kg/injection, schedule: Q01DX009 (ip), vehicle: saline with Tween-80
# [9] = endpoint: mean survival time, dose: 400.0 mg/kg/injection, schedule: Q04DX003 (ip), vehicle: saline with Tween-80
# [10] = endpoint: mean survival time, dose: 100.0 mg/kg/injection, schedule: Q01DX005 (ip), vehicle: distilled water + Tween-80
# [11] = endpoint: mean survival time, dose: 200.0 mg/kg/injection, schedule: Q01DX005 (ip), vehicle: distilled water + Tween-80
# [12] = endpoint: mean survival time, dose: 400.0 mg/kg/injection, schedule: Q01DX005 (ip), vehicle: distilled water + Tween-80
# [13] = endpoint: mean survival time, dose: 100.0 mg/kg/injection, schedule: Q04DX002 (ip), vehicle: saline with Tween-80
# [14] = endpoint: mean survival time, dose: 200.0 mg/kg/injection, schedule: Q04DX002 (ip), vehicle: saline with Tween-80
# [15] = endpoint: mean survival time, dose: 400.0 mg/kg/injection, schedule: Q04DX002 (ip), vehicle: saline with Tween-80
compound,measurement,setting,value
Nc1ncnc2c1ncn2C1OC(COP(=O)(O)O)C(O)C1O (centres undefined),T/C,"endpoint: mean survival time, dose: 9.4 mg/kg/injection, schedule: Q03HX016 (ip), vehicle: water",106 % of control
same,T/C,"endpoint: mean survival time, dose: 9.4 mg/kg/injection, schedule: Q03HX024 (ip), vehicle: water",109 % of control
same,T/C,"endpoint: mean survival time, dose: 12.5 mg/kg/injection, schedule: Q01DX009 (ip), vehicle: saline",98 % of control
same,T/C,[1],103 % of control
same,T/C,"endpoint: mean survival time, dose: 18.8 mg/kg/injection, schedule: Q03HX016 (ip), vehicle: water",110 % of control
same,T/C,"endpoint: mean survival time, dose: 18.8 mg/kg/injection, schedule: Q03HX024 (ip), vehicle: water",107 % of control
same,T/C,"endpoint: mean survival time, dose: 25.0 mg/kg/injection, schedule: Q01DX009 (ip), vehicle: saline",104 % of control
same,T/C,[2],107 % of control
same,T/C,"endpoint: mean survival time, dose: 27.5 mg/kg/injection, schedule: Q03DX024 (ip), vehicle: saline",107 % of control
same,T/C,"endpoint: mean survival time, dose: 27.5 mg/kg/injection, schedule: Q04DX003 (ip), vehicle: saline",105 % of control
same,T/C,"endpoint: mean survival time, dose: 36.7 mg/kg/injection, schedule: Q03DX024 (ip), vehicle: saline",115 % of control
same,T/C,"endpoint: mean survival time, dose: 36.7 mg/kg/injection, schedule: Q04DX003 (ip), vehicle: saline",103 % of control
same,T/C,"endpoint: mean survival time, dose: 37.5 mg/kg/injection, schedule: Q03HX016 (ip), vehicle: water",114 % of control
same,T/C,"endpoint: mean survival time, dose: 37.5 mg/kg/injection, schedule: Q03HX024 (ip), vehicle: water",113 % of control
same,T/C,"endpoint: mean survival time, dose: 50.0 mg/kg/injection, schedule: Q01DX009 (ip), vehicle: saline",100 % of control
same,T/C,"endpoint: mean survival time, dose: 50.0 mg/kg/injection, schedule: Q01DX009 (ip), vehicle: water",109 % of control
same,T/C,"endpoint: mean survival time, dose: 55.0 mg/kg/injection, schedule: Q03DX024 (ip), vehicle: saline",112 % of control
same,T/C,"endpoint: mean survival time, dose: 55.0 mg/kg/injection, schedule: Q04DX003 (ip), vehicle: saline",104 % of control
same,T/C,"endpoint: mean survival time, dose: 73.3 mg/kg/injection, schedule: Q03DX024 (ip), vehicle: saline",118 % of control
same,T/C,"endpoint: mean survival time, dose: 73.3 mg/kg/injection, schedule: Q04DX003 (ip), vehicle: saline",106 % of control
same,T/C,"endpoint: mean survival time, dose: 75.0 mg/kg/injection, schedule: Q03HX016 (ip), vehicle: water",115 % of control
same,T/C,"endpoint: mean survival time, dose: 75.0 mg/kg/injection, schedule: Q03HX024 (ip), vehicle: water",118 % of control
same,T/C,"endpoint: mean survival time, dose: 100.0 mg/kg/injection, schedule: Q01DX009 (ip), vehicle: saline",102 % of control
same,T/C,"endpoint: mean survival time, dose: 100.0 mg/kg/injection, schedule: Q01DX009 (ip), vehicle: water",115 % of control
same,T/C,"endpoint: mean survival time, dose: 200.0 mg/kg/injection, schedule: Q01DX009 (ip), vehicle: saline",102 % of control and 108 % of control
same,T/C,"endpoint: mean survival time, dose: 200.0 mg/kg/injection, schedule: Q01DX009 (ip), vehicle: water",119 % of control
same,T/C,"endpoint: mean survival time, dose: 315.0 mg/kg/injection, schedule: Q01DX009 (ip), vehicle: saline",106 % of control
same,T/C,"endpoint: mean survival time, dose: 375.0 mg/kg/injection, schedule: Q03HX024 (ip), vehicle: saline",156 % of control
same,T/C,"endpoint: mean survival time, dose: 400.0 mg/kg/injection, schedule: Q01DX009 (ip), vehicle: saline",114 % of control and 102 % of control
same,T/C,"endpoint: mean survival time, dose: 470.0 mg/kg/injection, schedule: Q01DX009 (ip), vehicle: saline",110 % of control
same,T/C,"endpoint: mean survival time, dose: 700.0 mg/kg/injection, schedule: Q01DX009 (ip), vehicle: saline",112 % of control
same,T/C,"endpoint: mean survival time, dose: 800.0 mg/kg/injection, schedule: Q01DX009 (ip), vehicle: saline",122 % of control
same,T/C,"endpoint: median survival time, dose: 20.0 mg/kg/injection, schedule: Q01DX009 (ip), vehicle: water",102 % of control
same,T/C,"endpoint: median survival time, dose: 40.0 mg/kg/injection, schedule: Q01DX009 (ip), vehicle: water",105 % of control and 107 % of control
same,T/C,"endpoint: median survival time, dose: 80.0 mg/kg/injection, schedule: Q01DX009 (ip), vehicle: water",124 % of control and 108 % of control
same,T/C,"endpoint: median survival time, dose: 160.0 mg/kg/injection, schedule: Q01DX009 (ip), vehicle: water",117 % of control
O=C(O)C1C2c3cccc4cccc(c34)C12 (centres undefined),T/C,[3],101 % of control
same,T/C,[4],97 % of control
same,T/C,[5],101 % of control
same,T/C,[6],109 % of control
same,T/C,[7],101 % of control
c1cc(N2CCCC2)cc(N2CCCC2)c1,T/C,[4],96 % of control
same,T/C,[5],102 % of control
same,T/C,[6],88 % of control
same,T/C,[7],106 % of control
same,T/C,[8],88 % of control
same,T/C,[9],98 % of control
Cc1cc(C)c(C(=O)CN2CCOCC2)c(C)c1,T/C,[5],98 % of control
same,T/C,[7],101 % of control
same,T/C,[9],95 % of control
CC(=O)OCC1OC(n2nc(C#N)c(C#N)n2)C(OC(C)=O)C1OC(C)=O (centres undefined),T/C,"endpoint: mean survival time, dose: 12.5 mg/kg/injection, schedule: Q01DX005 (ip), vehicle: distilled water + Tween-80",106 % of control
same,T/C,"endpoint: mean survival time, dose: 25.0 mg/kg/injection, schedule: Q01DX005 (ip), vehicle: distilled water + Tween-80",101 % of control and 106 % of control
same,T/C,"endpoint: mean survival time, dose: 50.0 mg/kg/injection, schedule: Q01DX005 (ip), vehicle: distilled water + Tween-80",98 % of control and 112 % of control
same,T/C,[10],115 % of control and 104 % of control
same,T/C,[11],121 % of control and 104 % of control
same,T/C,[12],106 % of control
CCOC(=O)C(C#N)(CCC#N)CCC#N,T/C,[4],94 % of control
same,T/C,[5],100 % of control
same,T/C,[6],98 % of control
same,T/C,[7],102 % of control
same,T/C,[8],94 % of control
same,T/C,[9],100 % of control
C#CC(C)OCCO (centres undefined),T/C,"endpoint: mean survival time, dose: 100.0 mg/kg/injection, schedule: Q04DX003 (ip), vehicle: acetone",104 % of control
same,T/C,"endpoint: mean survival time, dose: 200.0 mg/kg/injection, schedule: Q04DX003 (ip), vehicle: acetone",98 % of control
same,T/C,"endpoint: mean survival time, dose: 400.0 mg/kg/injection, schedule: Q04DX003 (ip), vehicle: acetone",120 % of control
Cc1c2ccc3ccccc3c2c[n+]2ccccc12,T/C,"endpoint: mean survival time, dose: 1.25 mg/kg/injection, schedule: Q01DX009 (ip), vehicle: Klucel (hydroxypropylcellulose) (HPC)",87 % of control and 102 % of control
same,T/C,"endpoint: mean survival time, dose: 2.5 mg/kg/injection, schedule: Q01DX009 (ip), vehicle: Klucel (hydroxypropylcellulose) (HPC)",98 % of control and 102 % of control
same,T/C,"endpoint: mean survival time, dose: 5.0 mg/kg/injection, schedule: Q01DX009 (ip), vehicle: Klucel (hydroxypropylcellulose) (HPC)",100 % of control and 105 % of control
same,T/C,"endpoint: mean survival time, dose: 10.0 mg/kg/injection, schedule: Q01DX009 (ip), vehicle: Klucel (hydroxypropylcellulose) (HPC)",104 % of control and 110 % of control
same,T/C,"endpoint: mean survival time, dose: 20.0 mg/kg/injection, schedule: Q01DX009 (ip), vehicle: Klucel (hydroxypropylcellulose) (HPC)",105 % of control
Cc1ccccc1NC(=O)Oc1ccc(Cl)cc1C,T/C,[13],101 % of control
same,T/C,[14],93 % of control
same,T/C,[15],97 % of control
N#CC1c2ccccc2C=NN1C(=O)N(c1ccccc1)c1ccccc1 (centres undefined),T/C,"endpoint: mean survival time, dose: 100.0 mg/kg/injection, schedule: Q04DX003 (ip), vehicle: other",103 % of control
same,T/C,"endpoint: mean survival time, dose: 200.0 mg/kg/injection, schedule: Q04DX003 (ip), vehicle: other",105 % of control
same,T/C,"endpoint: mean survival time, dose: 400.0 mg/kg/injection, schedule: Q04DX003 (ip), vehicle: other",105 % of control
O=c1nc(Nc2ccccc2)ccn1C1OC(CO)C(O)C1O (centres undefined),T/C,[10],98 % of control
same,T/C,[11],107 % of control
same,T/C,[12],110 % of control
Cc1cc(SCc2ccccc2)cc(C)[o+]1,T/C,"endpoint: mean survival time, dose: 75.0 mg/kg/injection, schedule: Q01DX001 (ip), vehicle: saline",106 % of control
same,T/C,"endpoint: mean survival time, dose: 150.0 mg/kg/injection, schedule: Q01DX001 (ip), vehicle: saline",93 % of control
Fc1cc(F)c(F)c(Oc2c(F)c(F)c(-c3c(F)c(F)c(F)c(F)c3F)c(F)c2F)c1F,T/C,[5],100 % of control
same,T/C,[7],91 % of control
same,T/C,[9],91 % of control
Nc1cc(Nc2ccc(Cl)cc2)c2nc(-c3ccc(Cl)cc3)c(-c3ccc(Cl)cc3)nc2n1,T/C,[5],100 % of control
same,T/C,[7],107 % of control
same,T/C,[9],107 % of control
Nc1nc2c(ncn2-c2ccc(Cl)c(Cl)c2)c(=O)[nH]1,T/C,"endpoint: mean survival time, dose: 50.0 mg/kg/injection, schedule: Q04DX002 (ip), vehicle: saline with Tween-80",98 % of control
same,T/C,[13],93 % of control and 97 % of control
same,T/C,[14],97 % of control
same,T/C,[15],93 % of control
COc1cc2c(cc1OC)C(OC)N(C)c1c-2ccc2cc3c(cc12)OCO3 (centres undefined),T/C,"endpoint: mean survival time, dose: 3.13 mg/kg/injection, schedule: Q01DX009 (ip), vehicle: water",117 % of control
same,T/C,"endpoint: mean survival time, dose: 6.25 mg/kg/injection, schedule: Q01DX009 (ip), vehicle: water",121 % of control
same,T/C,[1],123 % of control
same,T/C,[2],121 % of control
CN(C)c1ccc2nc(CC(O)(C(F)(F)F)C(F)(F)F)ccc2c1,T/C,"endpoint: mean survival time, dose: 25.0 mg/kg/injection, schedule: Q01DX009 (ip), vehicle: saline with Tween-80",95 % of control
same,T/C,[3],95 % of control
same,T/C,[4],93 % of control
same,T/C,[5],89 % of control
